# Results as given in patent US12599128B2, “Composition and method for improving agronomic traits of a plant” (THE BOARD OF TRUSTEES OF THE UNIVERSITY OF ILLINOIS, priority 2024, dated 2026).
# Legend:
# Format in all cases: in vivo
# [1] = test system: soybean plants (shoot apical meristem); test: Field trial 1: soybean seed production after spraying the shoot apical meristem
# Procedure: (§1) FIG. 1 provides an example of an increase in soybean seed production following the removal of apical dominance by spraying with a double pass of 0.1M methyl decanoate (199.0±14.14 seeds/plant on average) at the V5 stage of growth compared to untreated controls (160.47±5.33 seeds/plant on average) conducted in Pleasant Plains, Illinois. […] Asterisks show significance differences at the 0.05 level.
# Field trial 1 was conducted in Pleasant Plants, Illinois. A single soybean variety was used in the field trial. The soybean variety was planted in 20 plots. Each plot was composed of 8 rows of plants spaced 30 inches apart and was 50 feet long by 20 feet wide. Soybeans were treated with 0.10 M methyl decanoate spray. An undiluted surfactant, polyoxyethylene sorbitan monolaurate, was added in equal weight to the fatty ester. Additional spray was applied by completion of a second pass with 0.10 M methyl decanoate spray. The second pass was completed immediately after the initial treatment of each row to saturate the apical meristem.
# Soybean plants were sprayed using an individual chemical spray backpack. The plants were sprayed with approximately 2.5 gallons/1000 sq feet of 0.1 M (or an equivalent of 110 gallons/acre) with the double pass. Soybean plants were sprayed with methyl decanoate at the V5 growth stage.
# The overall experiment was designed to distribute untreated control plots and mechanically clipped plants at the same growth stage with the methyl decanoate treated variety across the test field.
# [2] = test system: soybean plants (shoot apical meristem); test: Field trial 2: soybean seed production after spraying the shoot apical meristem
# Procedure: FIG. 2 provides an example of an increase in soybean seed production following the removal of apical dominance by spraying with a double pass of 0.1M methyl decanoate (220.6±21.96 seeds/plant on average) at the V3 stage of growth compared to untreated controls (147.88±13.59 seeds/plant on average) conducted in Mt. Pulaski, Illinois. […] Asterisks show significance differences at the 0.05 level, + indicates a marginally significant difference at <0.10.
# Field trial 2 was conducted at GroAlliance in Mt Pulaski, Illinois and planted with a soybean variety. Soybean plants were treated with a spray containing 0.10 M methyl decanoate and polyethylene sorbitan monolaurate. Soybean plants were sprayed using individual chemical backpack spray units. The soybean plants were treated with methyl decanoate at or between the growth stages of V3 and V4.
# The test field was subdivided into plots with the dimensions of five rows by 10 feet. Two plots were designated for each soybean variety for spray treatment and distributed geographically across the full test field. Untreated control plots and mechanically clipped plants at the same growth stage were adjacent to the test plot areas.
# [3] = test system: soybean plants (shoot apical meristem); test: Field trial 3: soybean seed production after spraying the shoot apical meristem
# Procedure: as §1, with “FIG. 3” for “FIG. 1”, “decanoate (97.85±4.43” for “decanoate (199.0±14.14”, “the V4-V6” for “the V5”, “controls (79.81±3.09” for “controls (160.47±5.33”, “in Lowell, Indiana.” for “in Pleasant Plains, Illinois.”
# Field trial 3 was conducted in Lowell, Indiana and a single soybean variety was tested. Soybean plants were treated with a double pass of methyl decanoate at a concentration of 0.10 M. The methyl decanoate spray contained an undiluted surfactant, polyoxyethylene sorbitan monolaurate, that was added in equal weight to the fatty ester.
# Soybean plants were treated the methyl decanoate spray using a backpack spray unit. Soybeans were sprayed in between growth stages V4-V6. The test plots were 21 rows by 50 feet.
smiles,measurement,setting,value
CCCCCCCCCC(=O)OC [methyl decanoate],seed yield compared to untreated control plants (in words),"[1]; 0.10 M spray with polyoxyethylene sorbitan monolaurate, V5 growth stage",increased seed yield
same,higher seed production than the untreated control,"[1]; double pass of 0.1M spray at V5 stage, Pleasant Plains, Illinois, F=3.33, p=0.046",24%
same,soybean seed production (seeds/plant on average),"[1]; double pass of 0.1M spray at V5 stage, Pleasant Plains, Illinois, untreated controls 160.47±5.33",199.0±14.14 seeds/plant
same,seed yield compared to untreated control plants (in words),"[2]; 0.10 M spray with surfactant, at or between V3 and V4",increased seed yield
same,higher seed production than the untreated control,"[2]; double pass of 0.1M spray at V3 stage, Mt. Pulaski, Illinois, F=2.74, p=0.084",38.4%
same,soybean seed production (seeds/plant on average),"[2]; double pass of 0.1M spray at V3 stage, Mt. Pulaski, Illinois, untreated controls 147.88±13.59",220.6±21.96 seeds/plant
same,seed yield compared to untreated control plants (in words),"[3]; double pass 0.10 M spray with polyoxyethylene sorbitan monolaurate, V4-V6",increased seed yield
same,higher seed production than the untreated control,"[3]; double pass of 0.1M spray at V4-V6 stage, Lowell, Indiana, F=5.63, p=0.005",22.6%
same,soybean seed production (seeds/plant on average),"[3]; double pass of 0.1M spray at V4-V6 stage, Lowell, Indiana, untreated controls 79.81±3.09",97.85±4.43 seeds/plant
